According to patent US8258114B2, “Modulation of glucose-6-phosphatase translocase expression” (Isis Pharmaceuticals, Inc., priority 2004, dated 2012):

Key:
Type in all cases: in vivo, mouse
[1] = system: glucose-6-phosphatase translocase mRNA; experiment: Target mRNA reduction in liver of db/db mice (Example 10); settings: 25 mg/kg s.c. twice weekly, end of study
Description: (§1) Seven-week old male C57B1/6J-Lepr db/db mice (Jackson Laboratory, Bar Harbor, Me.) were fed a diet with a fat content of about 14% and were subcutaneously injected with one or more of the oligomeric compounds of the invention or a control compound at a dose of 25 mg/kg two times per week. Glucose-6-phosphatase translocase antisense oligonucleotides used were ISIS 148985 (SEQ ID NO: 118) and ISIS 149008 (SEQ ID NO: 141). ISIS 116847 (SEQ ID NO: 143), targeted to mouse PTEN, was used as a positive control. The scrambled control oligonucleotide ISIS 141923 ([…], incorporated herein as SEQ ID NO: 144) served as a negative control along with saline-injected animals. ISIS 141923 and ISIS 116847 are chimeric oligonucleotides (“gapmers”) 20 nucleotides in length, composed of a central “gap” region consisting of 10 2′-deoxynucleotides, which is flanked on both sides (5′ and 3′) by five-nucleotide “wings”. The wings are composed of 2′-O-(2-methoxyethyl) nucleotides, also known as 2′-MOE nucleotides. The internucleoside (backbone) linkages are phosphorothioate throughout the oligonucleotide. All cytidine residues are 5-methylcytidines.
48 hours after the final treatment, mice were sacrificed and target levels were evaluated in liver. RNA isolation and target mRNA expression level quantitation were performed as described by other examples herein.
Glucose-6-phosphatase translocase mRNA levels in db/db mouse livers were measured at the end of study using RIBOGREEN™ RNA quantification reagent (Molecular Probes, Inc. Eugene, Oreg.) as taught in previous examples above. Unless otherwise noted, data are expressed as the average percent inhibition from 5 animals per treatment group.

db/db mice [2] = experiment: Fed plasma glucose in db/db mice, dose-response study (Example 11)
Description: (§2) Seven-week old male C57B1/6J-Lepr db/db mice (Jackson Laboratory, Bar Harbor, Me.) were fed a diet with a fat content of about 14% (Formulab Diet 5008) and were subcutaneously injected with ISIS 116847 (SEQ ID NO: 143), ISIS 141923 (SEQ ID NO: 144), or ISIS 148985 (SEQ ID NO: 118), an antisense inhibitor of glucose-6-phosphatase translocase, […] […] Saline-injected animals served as controls. 48 hours after the eighth and final dose was administered, mice were sacrificed and target levels were evaluated in liver. RNA isolation and target mRNA expression level quantitation were performed as described by other examples herein.
For seven animals per treatment group, plasma glucose was measured with routine clinical analyzer instruments (e.g. Olympus Clinical Analyzer). Data are expressed as averages per treatment group.

[3] = Plasma neutrophils and lymphocytes in db/db mice (Table 9)
Description: as §2
Because mutations in the glucose-6-phosphatase translocase gene responsible for human glycogen storage disease type 1b result in neutropenia, plasma neutrophils and lymphocytes were measured for animals in each treatment group.

db/db mice [4] = experiment: Oral glucose tolerance test in db/db mice (Table 10)
Description: (§3) The mice described in Example 11 were evaluated for performance on glucose tolerance tests after the 6th dose of saline or antisense oligonucleotides. Through measurement of glucose levels following the administration of a bolus of glucose, tolerance tests assess the physiological response to a glucose challenge.
(§4) Oral glucose tolerance tests (OGTT) were performed during week 3 of treatment with saline, ISIS 116847 (targeted to PTEN, SEQ ID NO: 143), ISIS 149008 (SEQ ID NO: 141), ISIS 148985 (SEQ ID NO: 118), or ISIS 141923 (SEQ ID NO: 144). To provide a baseline glucose level, fasted blood glucose levels were measured before the challenge. Glucose was administered by oral gavage via an 18 g gavage needle at a dose of 1 g/kg. Plasma glucose levels were measured for 30, 60, 90 and 120 minutes post-challenge using an Ascencia Glucometer Elite XL (Bayer, Tarrytown, N.Y.).
The results are presented in Table 10 as the average plasma glucose level (in mg/dL) per time point from each treatment group (n=7).

db/db mice [5] = experiment: Fed and fasted plasma glucose in db/db mice (Example 10); settings: 25 mg/kg s.c. twice weekly; for fasted plasma glucose: week 3, overnight fast, saline 343
Description: as §1
The effects of target inhibition on glucose metabolism were evaluated in the db/db mice treated with the oligomeric compounds of the invention. For seven animals per treatment group, plasma glucose (fed) was measured prior to the start of the treatment (week 0) and during weeks 2 and 4 of treatment. Fasted glucose measurements were made during week three, after animals were fasted overnight (about 15 hours). Data are expressed as the averages per treatment group.

ob/ob mice = experiment: Oral glucose tolerance test in ob/ob mice (Table 6); settings: 25 mg/kg twice weekly; for plasma glucose, OGTT: after 6th dose
Description: as §3, with “7” for “11”
as §4, with “during the third” for “during”, “week” for “week 3”, “ISIS” for “ISIS 149008 (SEQ ID NO: 141), ISIS”, “149008” for “141923”, “141).” for “144).”
The results are presented in Table 6 as the average result (plasma glucose in mg/dL) from each treatment group (n=7). Saline-treated mice served as the control to which glucose levels were compared.

[6] = 25 mg/kg twice weekly, week 0, saline 280
[7] = 25 mg/kg twice weekly, week 2, saline 517
[8] = 25 mg/kg twice weekly, week 4, saline 510
[9] = 25 mg/kg twice weekly 4 weeks (25 mg/mL [sic]), saline 0.9
[10] = 25 mg/kg twice weekly 4 weeks (25 mg/mL [sic]), saline 2.7
[11] = 25 mg/kg twice weekly, week 3, 0 min post-glucose challenge (fasted)
[12] = 25 mg/kg twice weekly, week 3, 30 min
[13] = 25 mg/kg twice weekly, week 3, 60 min
[14] = 25 mg/kg twice weekly, week 3, 90 min
[15] = 25 mg/kg twice weekly, week 3, 120 min
[16] = 0 min post-glucose challenge (fasted)

CCTTCCCTGAAGGTTCCTCC (chemistry not given here) [ISIS 141923, scrambled control oligonucleotide, negative control, reference compound]
Glucose-6-phosphatase translocase mRNA levels in liver, reduction compared to saline [1]: about 4% | fed plasma glucose (db/db mice [2]; [6]): approximately 287 mg/dL | fed plasma glucose (db/db mice [2]; [7]): ~456 mg/dL | fed plasma glucose (db/db mice [2]; [8]): ~510 mg/dL | Neutrophils Plasma [3, 9]: 0.9 cells/nL | Lymphocytes Plasma [3, 10]: 2.6 cells/nL | plasma glucose, OGTT (db/db mice [4]; [11]): 284 mg/dL | plasma glucose, OGTT (db/db mice [4]; [12]): 522 mg/dL | plasma glucose, OGTT (db/db mice [4]; [13]): 445 mg/dL | plasma glucose, OGTT (db/db mice [4]; [14]): 338 mg/dL | plasma glucose, OGTT (db/db mice [4]; [15]): 339 mg/dL | fed plasma glucose (db/db mice [5]; week 0, saline 270): approximately 272 mg/dL | fed plasma glucose (db/db mice [5]; week 2, saline 534): ~538 mg/dL | fasted plasma glucose (db/db mice [5]): approximately 287 mg/dL | fed plasma glucose (db/db mice [5]; week 4, saline 627): ~563 mg/dL

CTGCTAGCCTCTGGATTTGA (chemistry not given here) [ISIS 116847, positive control oligonucleotide targeted to mouse PTEN, reference compound]
Glucose-6-phosphatase translocase mRNA levels in liver, reduction compared to saline [1]: about 8% | plasma glucose, OGTT (ob/ob mice; [16]): 286 mg/dL | plasma glucose, OGTT (ob/ob mice; 30 min post-glucose challenge): 290 mg/dL | plasma glucose, OGTT (ob/ob mice; 60 min post-glucose challenge): 238 mg/dL | plasma glucose, OGTT (ob/ob mice; 90 min post-glucose challenge): 229 mg/dL | plasma glucose, OGTT (ob/ob mice; 120 min post-glucose challenge): 194 mg/dL | fed plasma glucose (db/db mice [2]; [6]): approximately 282 mg/dL | fed plasma glucose (db/db mice [2]; [7]): ~291 mg/dL | fed plasma glucose (db/db mice [2]; [8]): ~224 mg/dL | Neutrophils Plasma [3, 9]: 0.8 cells/nL | Lymphocytes Plasma [3, 10]: 3.1 cells/nL | plasma glucose, OGTT (db/db mice [4]; [11]): 181 mg/dL | plasma glucose, OGTT (db/db mice [4]; [12]): 441 mg/dL | plasma glucose, OGTT (db/db mice [4]; [13]): 367 mg/dL | plasma glucose, OGTT (db/db mice [4]; [14]): 305 mg/dL | plasma glucose, OGTT (db/db mice [4]; [15]): 286 mg/dL | fed plasma glucose (db/db mice [5]; week 0, saline 270): approximately 267 mg/dL | fed plasma glucose (db/db mice [5]; week 2, saline 534): ~360 mg/dL | fasted plasma glucose (db/db mice [5]): approximately 241 mg/dL | fed plasma glucose (db/db mice [5]; week 4, saline 627): ~334 mg/dL

GCTCCATAGCGAGGACTCGA (chemistry not given here) [ISIS 148985]
Glucose-6-phosphatase translocase mRNA levels in liver, reduction compared to saline [1]: approximately 19% | plasma glucose, OGTT (ob/ob mice; [16]): 293 mg/dL | plasma glucose, OGTT (ob/ob mice; 30 min post-glucose challenge): 489 mg/dL | plasma glucose, OGTT (ob/ob mice; 60 min post-glucose challenge): 433 mg/dL | plasma glucose, OGTT (ob/ob mice; 90 min post-glucose challenge): 331 mg/dL | plasma glucose, OGTT (ob/ob mice; 120 min post-glucose challenge): 305 mg/dL | fed plasma glucose (db/db mice [2]; [6]): approximately 289 mg/dL | fed plasma glucose (db/db mice [2]; [7]): ~394 mg/dL | fed plasma glucose (db/db mice [2]; [8]): ~443 mg/dL | Neutrophils Plasma [3, 9]: 1.0 cells/nL | Lymphocytes Plasma [3, 10]: 3.3 cells/nL | plasma glucose, OGTT (db/db mice [4]; [11]): 230 mg/dL | plasma glucose, OGTT (db/db mice [4]; [12]): 494 mg/dL | plasma glucose, OGTT (db/db mice [4]; [13]): 445 mg/dL | plasma glucose, OGTT (db/db mice [4]; [14]): 335 mg/dL | plasma glucose, OGTT (db/db mice [4]; [15]): 355 mg/dL | fed plasma glucose (db/db mice [5]; week 0, saline 270): approximately 267 mg/dL | fed plasma glucose (db/db mice [5]; week 2, saline 534): ~512 mg/dL | fasted plasma glucose (db/db mice [5]): approximately 288 mg/dL | fed plasma glucose (db/db mice [5]; week 4, saline 627): ~552 mg/dL

TATACAAGTCGGTTTGCCCT (chemistry not given here) [ISIS 149008]
Glucose-6-phosphatase translocase mRNA levels in liver, reduction compared to saline [1]: approximately 82% | plasma glucose, OGTT (ob/ob mice; [16]): 237 mg/dL | plasma glucose, OGTT (ob/ob mice; 30 min post-glucose challenge): 372 mg/dL | plasma glucose, OGTT (ob/ob mice; 60 min post-glucose challenge): 276 mg/dL | plasma glucose, OGTT (ob/ob mice; 90 min post-glucose challenge): 238 mg/dL | plasma glucose, OGTT (ob/ob mice; 120 min post-glucose challenge): 214 mg/dL | glucose tolerance (in words) (ob/ob mice; OGTT): improved glucose tolerance | fed plasma glucose (db/db mice [2]; 6.25 mg/kg twice weekly, week 0): approximately 289 mg/dL | fed plasma glucose (db/db mice [2]; 6.25 mg/kg twice weekly, week 2): ~397 mg/dL | fed plasma glucose (db/db mice [2]; 6.25 mg/kg twice weekly, week 4): ~478 mg/dL | fed plasma glucose (db/db mice [2]; 12.5 mg/kg twice weekly, week 0): approximately 283 mg/dL | fed plasma glucose (db/db mice [2]; 12.5 mg/kg twice weekly, week 2): ~411 mg/dL | fed plasma glucose (db/db mice [2]; 12.5 mg/kg twice weekly, week 4): ~203 mg/dL | fed plasma glucose (db/db mice [2]; [6]): approximately 286 mg/dL | fed plasma glucose (db/db mice [2]; [7]): ~359 mg/dL | fed plasma glucose (db/db mice [2]; [8]): ~299 mg/dL | Neutrophils Plasma [3, 9]: 1.0 cells/nL | Lymphocytes Plasma [3, 10]: 3.7 cells/nL | Lymphocytes Plasma ([3]; dose 12.5 mg/mL [sic]): 3.2 cells/nL | Neutrophils Plasma ([3]; dose 12.5 mg/mL [sic]): 0.9 cells/nL | Lymphocytes Plasma ([3]; dose printed 6 mg/mL): 2.8 cells/nL | Neutrophils Plasma ([3]; dose printed 6 mg/mL): 1.1 cells/nL | plasma glucose, OGTT (db/db mice [4]; 6 mg/kg twice weekly, week 3, 0 min (fasted)): 204 mg/dL | plasma glucose, OGTT (db/db mice [4]; 6 mg/kg twice weekly, week 3, 30 min): 518 mg/dL | plasma glucose, OGTT (db/db mice [4]; 6 mg/kg twice weekly, week 3, 60 min): 468 mg/dL | plasma glucose, OGTT (db/db mice [4]; 6 mg/kg twice weekly, week 3, 90 min): 377 mg/dL | plasma glucose, OGTT (db/db mice [4]; 6 mg/kg twice weekly, week 3, 120 min): 330 mg/dL | plasma glucose, OGTT (db/db mice [4]; 12.5 mg/kg twice weekly, week 3, 0 min (fasted)): 152 mg/dL | plasma glucose, OGTT (db/db mice [4]; 12.5 mg/kg twice weekly, week 3, 30 min): 529 mg/dL | plasma glucose, OGTT (db/db mice [4]; 12.5 mg/kg twice weekly, week 3, 60 min): 427 mg/dL | plasma glucose, OGTT (db/db mice [4]; 12.5 mg/kg twice weekly, week 3, 90 min): 348 mg/dL | plasma glucose, OGTT (db/db mice [4]; 12.5 mg/kg twice weekly, week 3, 120 min): 329 mg/dL | area under the curve (AUC) of OGTT glucose values compared to saline (in words) (db/db mice [4]; 25 mg/kg): significantly reduced the AUC | plasma glucose, OGTT (db/db mice [4]; [11]): 227 mg/dL | plasma glucose, OGTT (db/db mice [4]; [12]): 462 mg/dL | plasma glucose, OGTT (db/db mice [4]; [13]): 326 mg/dL | plasma glucose, OGTT (db/db mice [4]; [14]): 272 mg/dL | plasma glucose, OGTT (db/db mice [4]; [15]): 231 mg/dL | glucose tolerance (in words) (db/db mice [4]; 6.25 to 25 mg/kg): dose-dependent improvement in glucose tolerance | fed plasma glucose (db/db mice [5]; week 0, saline 270): approximately 272 mg/dL | fed plasma glucose (db/db mice [5]; week 2, saline 534): ~390 mg/dL | fasted plasma glucose (db/db mice [5]): approximately 241 mg/dL | fed plasma glucose (db/db mice [5]; week 4, saline 627): ~347 mg/dL
